# From US12680075B2, “Immune cells derived from induced pluripotent stem cell” (THE CHILDREN'S MEDICAL CENTER CORPORATION, priority 2016, dated 2026)
# Tests used:
# Format in all cases: cell-based, human
# EZH2 and EZH1 = assay: Total H3K27me3 protein levels in 5F cells treated with GSK126
# Protocol: At 3 uM, protein levels of total H3K27me3 begins to decrease relative to DMSO control, indicating effective dose for EZH2 and EZH1 inhibition.
# (§1) To dissect the importance of PRC2 in definitive hematopoietic potential, the inventors knocked down each component of PRC2 (2 shRNAs per gene) in 5F cells and assessed T cell differentiation. The inventors confirmed efficient knockdown by each shRNA (FIG. 3A). […] To validate this finding, the inventors used an […], GSK126, that has 150-fold higher selectivity for EZH2 over EZH1 (McCabe et al. 2012) (FIGS. 3G, 3I and 3J). […] To test the effect of EZH2 inhibition on T cell potential, the inventors generated definitive hemogenic endothelium (HE) from hPSCs with T lymphoid potential via inhibition of Activin/Nodal signaling at the early stage of mesoderm differentiation (Kennedy et al. 2012).
# 5F cells = assay: Colony-forming assays of 5F cells treated with GSK126; conditions: 3 uM GSK126
# Protocol: Colony assays. After 14 days of respecification, 5×10^4 cells were plated into 3 ml of complete methylcellulose H3434 (StemCell Technologies) supplemented with 10 ng/ml IL6 (Peprotech), 10 ng/ml FLT3 (R&D), and 50 ng/ml TPO (R&D). The mixture was distributed into two 60 mm dishes and maintained in a humidified chamber for 14 days.
# as §1
# [1] = tested on: CD34+ d9 hemogenic endothelial (HE) cells; assay: T cell potential of CD34+ d9 hemogenic endothelial cells treated with GSK126; conditions: 3 uM GSK126 vs DMSO-treated cells
# Description: as §1
smiles,measurement,setting,value
CC[C@H](C)n1cc(C)c2c(C(=O)NCc3c(C)cc(C)[nH]c3=O)cc(-c3ccc(N4CCNCC4)nc3)cc21 [GSK126],global H3K27me3,"EZH2 and EZH1; 3 uM GSK126, 5F cells",markedly reduced
same,concentration at which total H3K27me3 begins to decrease relative to DMSO control (effective dose for EZH2 and EZH1 inhibition),EZH2 and EZH1; 5F cells,3 µM
same,EZH2 and EZH1 enzymatic activity as monitored by total protein levels of H3K27me3,"EZH2 and EZH1; increasing concentration of GSK126, 5F cells",dose-dependent decrease
same,toxicity as assessed by colony-forming assays,5F cells,partial toxicity
same,CD4+CD8+ T cell population,[1],abrogated
